# In article PMC11432330, “Novel Drug-like HsrA Inhibitors Exhibit Potent Narrow-Spectrum Antimicrobial Activities against Helicobacter pylori” (International Journal of Molecular Sciences, 2024):
# Experiments:
# [1] = target: T1, C. jejuni response regulator CosR (Campylobacter jejuni, UniProt Q0PBF4); test: EMSA: inhibition of in vitro DNA binding activity of CosR to promoter PsodB; assay type: biochemical; conditions: 700 nM CosR, ligand 0.1-2 mM
# Experimental: The DNA binding activities of recombinant HsrA and CosR were assessed in vitro by electrophoretic mobility shift assays (EMSAs). A 300-bp promoter region of the H. pylori 26695 operon porGDAB was used as the target sequence of HsrA in all EMSA experiments. Likewise, a 420-bp sequence of the C. jejuni sodB promoter (ATCC 33560) was used as the target DNA of CosR [90]. The oligonucleotides used for the synthesis of these promoter regions are described in Supplementary Table S4. Response regulators HsrA (6 μM) or CosR (700 nM) were mixed with 120 ng of their target promoters in a reaction buffer of 10 mM bis-Tris (pH 7.5), 40 mM KCl, 100 mg/L BSA, 1 mM DTT, and 5% glycerol. For the in vitro inhibition analyses, mixtures of target DNA and response regulator were exposed to 2, 1, 0.5, and 0.1 mM of each compound of interest, incubated at room temperature for 20 min, and then separated on a 6% non-denaturing electrophoresis. DMSO instead of inhibitors was included as a vehicle control, while an internal sequence of the Anabaena sp. pkn22 gene was used as the non-specific competitor in all assays. For DNA-protein binding visualization, gels were stained with the SYBR Safe DNA gel stain (Invitrogen) and analyzed with a Gel Doc 2000 Image Analyzer (Bio-Rad).
# [2] = target: T1, C. jejuni response regulator CosR; test: Isothermal titration calorimetry (ITC) with CosR; assay type: binding
# Experimental: Molecular interactions of the selected ligands with proteins HsrA or CosR were studied by isothermal titration calorimetry (ITC), as previously described. Titrations were assessed in a high-sensitivity MicroCal Auto-iTC200 calorimeter (Malvern Panalytical, Malvern, UK). Experiments were carried out at 25 °C in freshly prepared buffer containing 50 mM Tris-HCl [pH 8], 150 mM NaCl, 10% glycerol, and 1% DMSO. A 20 µM solution of protein was located in the calorimetric cell. Then, a sequence of 19 injections of 2 µL volume each with a 200 µM solution of the corresponding ligand was programmed with a time spacing of 150 s, a stirring speed of 750 rpm, and a reference power of 10 µcal/s in the sample cell. Thermodynamic properties such as binding stoichiometry, dissociation constants, and binding enthalpies were calculated by nonlinear least-squares regression data analysis using Origin 7.0 software.
# T1 sequence (Q0PBF4 entry or part of it): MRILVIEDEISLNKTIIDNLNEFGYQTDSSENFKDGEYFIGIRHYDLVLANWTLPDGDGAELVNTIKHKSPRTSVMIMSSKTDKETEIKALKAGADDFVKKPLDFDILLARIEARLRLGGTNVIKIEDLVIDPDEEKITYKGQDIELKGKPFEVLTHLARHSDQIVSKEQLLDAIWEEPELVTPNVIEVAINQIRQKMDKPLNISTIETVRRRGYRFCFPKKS
structure (smiles),measurement,setting,value
"NC(=NOC(=O)Nc1ccc(Cl)cc1)c1csc([N+](=O)[O-])c1 [Ligand V, N′-{[(4-chloroanilino)carbonyl]}oxy-5-nitrothiophene-3-carboximidamide]",Inhibition of in vitro DNA binding activity of CosR (EMSA),[1],noticeable inhibition
same,ΔG,[2]; absolute error 0.1,-6.2 kcal/mol
same,ΔH,[2]; absolute error 0.4,-0.9 kcal/mol
same,Kd,[2]; relative error 15%,26 µM
